Columns and labels:
[1] = tested on: female voles; details: OT administered; without mating 24 hrs or more needed; cited from earlier work
[2] = tested on: female prairie voles; experiment: Partner preference test immediately after 6 hour cohabitation (experiment 1); format: in vivo, prairie vole; details: intraperitoneal, tested immediately after cohabitation, FIG. 1
Description: Social bonding in prairie voles is a complex social cognitive process, which involves the synthesis of social motivation, social information process and social learning. Bonding can be efficiently assayed in the laboratory using a partner preference paradigm (Ahern, 2009). The formation of a partner preference in female prairie voles is dependent on OT (Williams, 1994). In the absence of mating, 24 hrs of cohabitation is typically needed for the development of a partner preference. However, OT administration accelerates partner preference formation to 6 hrs or less. […] Melanotan I (MTI) and Melanotan II (MTII), synthetic α-MSH analogues, which act on melanocortin ¾ receptors, and busprione (BUS), a 5-HT1a receptor partial agonist, We administered to female prairie voles and assessed partner preference. […]
Female prairie voles were injected intraperitoneally with either Melanotan II (1.10 mg/kg; Sigma Aldrich, St. Louis, Mo.), buspirone (8, 30 mg/kg; Sigma Aldrich, St. Louis, Mo.) or a saline control in a dissolved in a volume of 0.1 ml 0.1% sterile saline. […] The pairs were cohabitated for six hours and video recorded to monitor for sexual behavior. […] The videos were analyzed afterwards for mating attempts and animals that mated were excluded from the study. […] The time the subject spent in side by side contact with no joint motion was scored using the CleverSys Behavioral Analysis System. […]

Row | Structure (SMILES) | cohabitation period to partner preference formation [1] | time spent with the partner male vs. the stranger male (partner preference) ([2]; high dose) | time spent with the partner male vs. the stranger male (partner preference) ([2]; low dose)
1 | CC[C@H](C)[C@@H]1NC(=O)[C@H](Cc2ccc(O)cc2)NC(=O)[C@@H](N)CSSC[C@@H](C(=O)N2CCC[C@H]2C(=O)N[C@@H](CC(C)C)C(=O)NCC(N)=O)NC(=O)[C@H](CC(N)=O)NC(=O)[C@H](CCC(N)=O)NC1=O [OT, Oxytocin] | ≤ 6 h |  | 
2 | O=C1CC2(CCCC2)CC(=O)N1CCCCN1CCN(c2ncccn2)CC1 [BUS, buspirone] |  | failed to spend significantly more time with either stimulus animal | spent significantly more time with the partner male vs. the stranger male

— patent US10058584B2, “Methods of improving behavioral therapies” (Emory University, priority 2010, dated 2018)
